The term Km denotes the substrate concentration at which the rate is half of its maximum. The term Ki denotes the dissociation constant of the complex between target and ligand, obtained from inhibition or displacement. A higher Ki goes with a looser hold on the target. One may read the IC50 as the concentration needed to halve the response being measured.

SMILES strings stand for the structures.

The target of data set [1] is T1, pancreatic lipase (PL) (Sus scrofa, UniProt P00591).
T1 construct: lipase (porcine pancreas); purchased Shanghai Yuanye Co., Ltd., Shanghai, China; host or cells: porcine pancreas
T1 sequence (P00591 1-450): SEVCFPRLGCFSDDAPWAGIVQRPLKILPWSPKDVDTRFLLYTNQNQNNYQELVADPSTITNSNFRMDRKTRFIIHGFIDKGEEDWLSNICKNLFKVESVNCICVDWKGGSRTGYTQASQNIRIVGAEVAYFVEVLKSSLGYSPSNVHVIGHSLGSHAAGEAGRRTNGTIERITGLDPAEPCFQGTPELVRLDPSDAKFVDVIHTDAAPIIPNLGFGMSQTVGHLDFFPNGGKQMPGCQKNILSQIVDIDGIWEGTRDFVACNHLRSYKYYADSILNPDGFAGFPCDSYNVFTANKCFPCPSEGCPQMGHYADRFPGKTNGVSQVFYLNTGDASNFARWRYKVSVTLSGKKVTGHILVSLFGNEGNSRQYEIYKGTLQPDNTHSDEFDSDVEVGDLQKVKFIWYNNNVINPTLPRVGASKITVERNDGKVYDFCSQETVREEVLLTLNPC
Nature of the data set: In vitro stability (temperature and acid-base pre-treatment, then PL inhibition). It is filed as physicochemical, porcine. The following applies: 20 min treatment with buffers pH 2.0-10.0. The protocol: Temperature stability study. Sample pre-treatment: 1000 μL samples were bathed in water at different temperatures (30, 40, 50, 60, 70, 80, 90, 100 °C) for 20 min, and cooled rapidly.
Acid-base stability study. Sample pre-treatment: 1000 μL samples were treated with buffers of different pH (2.0, 3.0, 4.0, 5.0, 6.0, 7.0, 8.0, 9.0, and 10.0) for 20 min, and then the pH was adjusted back to 6.9–7.3.
PL inhibition experiments were the same as Section 3.2.1. A total of 200 μL pre-treated four porphyrin compounds, 500 μL of 4-nitrophenyl laurate (0.80 mg/mL), 400 μL of Tris-HCl buffer (pH 8.2, 0.1 mol/L), and 300 μL of pancreatic lipase (5 mg/mL) were reacted in an incubator at 37 °C for 2 h. The reaction solution was centrifuged at 12,000 rpm for 5 min, and 200 μL of the supernatant was added to a 96-well plate. The absorbance at 420 nm was measured. The temperature stability range was determined by comparing the inhibition rate of the samples treated at different temperatures. The range of acid-base stability was determined by comparing the changes in inhibition rate.

The target of data set [2] is T1, pancreatic lipase (PL). Nature of the data set: Mode of pancreatic lipase inhibition (reversibility, Lineweaver-Burk kinetics). The following applies: for Reversibility of PL inhibition: enzyme concentration vs reaction rate plots; for Ki: uncompetitive model, intercept replot. Format: biochemical, porcine. The protocol:
In the formula, v , Vmax, Km, and Ki represent reaction rate, maximum reaction rate, Michaelis constant, and free enzyme inhibition constant, respectively. [S] denotes the substrate concentration. [I] denotes the inhibitor concentration.
By analyzing the relationship between enzyme concentration and reaction rate, a fitting straight line was drawn to determine whether it was reversible.
The concentration of PL was fixed at 5 mg/mL, and the concentration of the substrate 4-nitrophenyl laurate was changed (0.40, 0.80, 1.20, 1.60 mg/mL). By analyzing the relationship between the concentration of different substrates and the reaction rate of the enzyme, the Lineweaver–Burk double reciprocal curve was plotted to determine the inhibition type and calculate the inhibition constant.

Data set [3] deals with T1, pancreatic lipase (PL). Briefly: FT-IR spectroscopy secondary structure analysis of PL-porphyrin complex. Also noted: species or system porcine. The following applies: PL:porphyrin molar ratio 1:2; for β-Antiparallel of PL in complex: PL alone 7.78 ± 0.02; for Random Coil of PL in complex: PL alone 16.30 ± 0.04; for β-Turn of PL in complex: PL alone 23.12 ± 0.03; for α-Helix of PL in complex: PL alone 25.48 ± 0.06; for β-Sheet of PL in complex: PL alone 27.31 ± 0.06. The text has this:
The effects of four porphyrin compounds on the secondary structure of PL were further studied by FT-IR spectroscopy. The amide I band (1700–1600 cm^−1, mainly C=O stretching) and the amide II band (1600–1500 cm^−1, mainly C-N stretching) are important spectral bands for studying the secondary structure of proteins. Because the regions of amide I band located at 1649–1660, 1615–1637, 1661–1680, 1638–1648, and 1681–1692 cm^−1 after curve fitting represent α-helix, β-sheet, β-turn, random coil and β-antiparallel, respectively, and the signal intensity is high, it is more widely evaluated than the amide II band.
The pancreatic lipase-porphyrin compound solution with a molar ratio of 1:2 was placed in a freeze-centrifugal concentrator Auto R1-plus (Beijing Jiaimu, Beijing, China). The dried solid samples were obtained and mixed with dried KBr, ground, and pressed into tablets, and then detected by Nicolet IS-50 (ThermoFisher, Waltham, MA, USA) instrument. The scanning range was 400–4000 cm^−1 and the resolution was 4 cm^−1. Peakfit V4.12 software was used to fit the amide I region (1600–1700 cm^−1) of pancreatic lipase.

Data set [4] deals with T1, pancreatic lipase (PL). Nature of the data set: Pancreatic lipase inhibition assay (4-nitrophenyl laurate substrate, absorbance 420 nm). The following applies: 37 °C, 2 h, pH 8.2 Tris-HCl. Format: biochemical, porcine. As to the method:
A total of 250 mg pancreatic lipase was dissolved in 50 mL ultrapure water. After centrifugation at 5000 r/min for 10 min, the supernatant was taken. Then, 80 mg of 4-nitrophenyl laurate was dissolved in 100 mL of 5 mmol/L sodium acetate solution (pH 5.0, containing 1% triton x-100), and dissolved in a boiling water bath. After cooling to room temperature, it was set aside. […] The blank sample solutions were chromatographic methanol solutions containing 2%, 5%, and 10% DMSO.
The activity of PL was determined by referring to the method and making appropriate modifications. A total of 200 μL of different concentrations of four porphyrin compounds, 500 μL of 4-nitrophenyl laurate (0.80 mg/mL), 400 μL of Tris-HCl buffer (pH 8.2, 0.1 mol/L), and 300 μL of pancreatic lipase (5 mg/mL) were reacted in an incubator at 37 °C for 2 h. The reaction solution was centrifuged at 12,000 rpm for 5 min, and 200 μL of the supernatant was added to a 96-well plate.

Turning to `O=C([O-])c1ccc(C2=C3C=CC(=N3)C(c3ccc(C(=O)[O-])cc3)=C3C=CC(=N3)C(=c3ccc(=C([O-])[O-])cc3)c3ccc([n-]3)C(c3ccc(C(=O)[O-])cc3)=C3C=CC2=N3)cc1.[67Cu+2].[H+].[H+].[H+].[H+]` [Cu-TCPP, Cu (II) meso-Tetra (4-carboxyphenyl) porphine], at pancreatic lipase (PL) [1], the “pH range in which PL inhibitory activity changed little (acid-base stability)” value is recorded as 2.0~10.0 pH. Besides, at pancreatic lipase (PL) [2], the “Reversibility of PL inhibition” value is listed as “reversible” and the Ki was determined as 196.15 ± 0.131 µM. On pancreatic lipase (PL) [2] (inhibitor C 29.33 μM), the Michaelis constant (Km) is 0.192 ± 0.0049 µM and the Vmax was 0.0052 ± 0.0013 ΔOD/min. For the same compound, on pancreatic lipase (PL) [2] (inhibitor C 58.66 μM), the Km was determined as 0.164 ± 0.0037 µM and the Vmax was 0.0044 ± 0.0009 ΔOD/min. Besides, on pancreatic lipase (PL) [2] (inhibitor C 117.33 μM), the Km was found to be 0.133 ± 0.0022 µM and the Vmax is recorded as 0.0036 ± 0.0006 ΔOD/min. Further, on pancreatic lipase (PL) [2] (inhibitor C 175.99 μM), the Km was determined as 0.112 ± 0.0046 µM and the Vmax was 0.0030 ± 0.0012 ΔOD/min. On pancreatic lipase (PL) [2] (inhibitor C 234.66 μM), the Michaelis-Menten constant (Km) came to 0.0988 ± 0.0017 µM and the Vmax is on record as 0.0026 ± 0.0005 ΔOD/min. At pancreatic lipase (PL) [3], the “β-Antiparallel of PL in complex” value is 0.87 ± 0.01%, the “Random Coil of PL in complex” value is given as 23.40 ± 0.06%, the “β-Turn of PL in complex” value was 13.51 ± 0.03% and the “α-Helix of PL in complex” value is 15.78 ± 0.05%. Further, the “β-Sheet of PL in complex” value at pancreatic lipase (PL) [3] turned out to be 46.44 ± 0.13%. Half-maximal inhibition against pancreatic lipase (PL) [4] (IC50) was put at 249 µM.
Consider `Nc1ccc(-c2c3nc(c(-c4ccc(N)cc4)c4ccc([nH]4)c(-c4ccc(N)cc4)c4nc(c(-c5ccc(N)cc5)c5ccc2[nH]5)C=C4)C=C3)cc1` [TAPP, 5,10,15,20-Tetrakis (4-aminophenyl) porphyrin], for which the “pH range in which PL inhibitory activity changed little (acid-base stability)” value at pancreatic lipase (PL) [1] was 2.0~9.0 pH. Also, on pancreatic lipase (PL) [2], the “Reversibility of PL inhibition” value is recorded as “reversible” and the inhibition constant (Ki) amounted to 149.9 ± 0.195 µM. For the same compound, the Vmax on pancreatic lipase (PL) [2] (inhibitor C 118.55 μM) was 0.0023 ± 0.0003 ΔOD/min. Moreover, the Vmax at pancreatic lipase (PL) [2] (inhibitor C 177.83 μM) was 0.0018 ± 0.0003 ΔOD/min. For the same compound, on pancreatic lipase (PL) [2] (inhibitor C 237.11 μM), the Vmax was 0.0016 ± 0.0006 ΔOD/min. In addition, the Vmax on pancreatic lipase (PL) [2] (inhibitor C 266.75 μM) was 0.0015 ± 0.0003 ΔOD/min. The Vmax on pancreatic lipase (PL) [2] (inhibitor C 296.38 μM) was 0.0014 ± 0.0005 ΔOD/min. For the same compound, at pancreatic lipase (PL) [3], the “β-Antiparallel of PL in complex” value amounted to 8.26 ± 0.02%, the “Random Coil of PL in complex” value turned out to be 24.25 ± 0.07%, the “β-Turn of PL in complex” value is given as 18.09 ± 0.04% and the “α-Helix of PL in complex” value is 12.81 ± 0.03%. Further, on pancreatic lipase (PL) [3], the “β-Sheet of PL in complex” value is recorded as 36.59 ± 0.07%. The compound further had an IC50 at pancreatic lipase (PL) [4] of 236 µM.
As for `O=C(O)c1ccc(-c2c3nc(c(-c4ccc(C(=O)O)cc4)c4ccc([nH]4)c(-c4ccc(C(=O)O)cc4)c4nc(c(-c5ccc(C(=O)O)cc5)c5ccc2[nH]5)C=C4)C=C3)cc1` [TCPP, meso-Tetra (4-carboxyphenyl) porphine], the “pH range in which PL inhibitory activity changed little (acid-base stability)” value on pancreatic lipase (PL) [1] is given as 2.0~10.0 pH. In addition, at pancreatic lipase (PL) [2], the “Reversibility of PL inhibition” value is “reversible” and the affinity, expressed as Ki, was 53.49 ± 0.141 µM. The Vmax at pancreatic lipase (PL) [2] (inhibitor C 12.65 μM) is given as 0.0042 ± 0.0011 ΔOD/min. On pancreatic lipase (PL) [2] (inhibitor C 31.61 μM), the Vmax is reported as 0.0037 ± 0.0008 ΔOD/min. Also, the Vmax on pancreatic lipase (PL) [2] (inhibitor C 63.23 μM) is reported as 0.0027 ± 0.0012 ΔOD/min. For the same compound, the Vmax at pancreatic lipase (PL) [2] (inhibitor C 126.45 μM) is recorded as 0.0015 ± 0.0004 ΔOD/min. For the same compound, on pancreatic lipase (PL) [2] (inhibitor C 189.68 μM), the Vmax was 0.0012 ± 0.0003 ΔOD/min. Besides, at pancreatic lipase (PL) [3], the “β-Antiparallel of PL in complex” value is recorded as 4.82 ± 0.01%, the “Random Coil of PL in complex” value was 24.70 ± 0.06%, the “β-Turn of PL in complex” value is on record as 10.43 ± 0.03% and the “α-Helix of PL in complex” value is on record as 22.26 ± 0.08%. Also, the “β-Sheet of PL in complex” value on pancreatic lipase (PL) [3] stood at 37.79 ± 0.12%. This compound also registered an IC50 against pancreatic lipase (PL) [4] of 100 µM.
Regarding `Oc1ccc(-c2c3nc(c(-c4ccc(O)cc4)c4ccc([nH]4)c(-c4ccc(O)cc4)c4nc(c(-c5ccc(O)cc5)c5ccc2[nH]5)C=C4)C=C3)cc1` [THPP, 5,10,15,20-Tetrakis (4-hydroxyphenyl) porphyrin], the “pH range in which PL inhibitory activity changed little (acid-base stability)” value at pancreatic lipase (PL) [1] was 2.0~10.0 pH. Also, at pancreatic lipase (PL) [2], the “Reversibility of PL inhibition” value is “reversible” and affinity was put at a Ki of 37.03 ± 0.186 µM. The Vmax at pancreatic lipase (PL) [2] (inhibitor C 36.84 μM) is recorded as 0.0041 ± 0.0009 ΔOD/min. For the same compound, the Vmax at pancreatic lipase (PL) [2] (inhibitor C 73.67 μM) is reported as 0.0035 ± 0.0013 ΔOD/min. Further, at pancreatic lipase (PL) [2] (inhibitor C 147.34 μM), the Vmax was 0.0018 ± 0.0007 ΔOD/min. The Vmax at pancreatic lipase (PL) [2] (inhibitor C 221.01 μM) was 0.0012 ± 0.0004 ΔOD/min. Besides, at pancreatic lipase (PL) [2] (inhibitor C 294.68 μM), the Vmax is 0.0009 ± 0.0002 ΔOD/min. For the same compound, on pancreatic lipase (PL) [3], the “β-Antiparallel of PL in complex” value is reported as 8.32 ± 0.01%, the “Random Coil of PL in complex” value came to 20.38 ± 0.02%, the “β-Turn of PL in complex” value is given as 19.70 ± 0.04% and the “α-Helix of PL in complex” value turned out to be 13.96 ± 0.04%. On pancreatic lipase (PL) [3], the “β-Sheet of PL in complex” value turned out to be 37.64 ± 0.05%. On pancreatic lipase (PL) [4], it took 97.5 µM to reach half-maximal inhibition (IC50).

These data come from publication PMC12251151, “Understanding Anti-Obesity Potential of Four Porphyrin Compounds by Investigating Pancreatic Lipase Inhibition” (Molecules, 2025).
